According to ChEMBL document CHEMBL5030558, “Optimization and Evaluation of Novel Antifungal Agents for the Treatment of Fungal Infection” (J Med Chem, 2021):
Converted amounts (≈) assume the structure as drawn.

Legend:
[1] = test system: Cryptococcus neoformans; experiment: Antifungal activity against Cryptococcus neoformans H99 assessed as reduction in fungal growth incubated for 72 hrs by CLSI based broth microdilution method; type: functional
[2] = test system: Nakaseomyces glabratus; experiment: Antifungal activity against Candida glabrata BG2 assessed as reduction in fungal growth incubated for 48 hrs by CLSI based broth microdilution method; type: functional
[3] = test system: Candida albicans; experiment: Antifungal activity against Candida albicans ATCC SC5314 assessed as reduction in fungal growth incubated for 48 hrs by CLSI based broth microdilution method; type: functional
[4] = test system: Aspergillus fumigatus; experiment: Antifungal activity against Aspergillus fumigatus AF293 assessed as reduction in fungal growth incubated for 48 hrs by CLSI based broth microdilution method; type: functional
[5] = Stability in human liver microsomes assessed as parent compound remaining after 30 mins; type: ADME, Microsome; details: read-out: Stability

| Structure (SMILES) | MIC [1] | MIC [2] | MIC [3] | MIC [4] | remaining at 0.5 h [5] |
| --- | --- | --- | --- | --- | --- |
| CC(=O)N1CCC(C(=O)NCCc2ccc(-c3ccc(C(F)(F)F)cc3)cc2)C1 (racemic) | > 128 µg/mL | > 128 µg/mL | > 128 µg/mL | > 128 µg/mL |  |
| CC(NCCc1ccc(OCc2ccccc2Cl)cc1)C(N)=O.CS(=O)(=O)O (racemic) | 32 µg/mL | > 128 µg/mL | > 128 µg/mL | 128 µg/mL |  |
| CC(NCCc1ccc(OCc2ccccc2F)cc1)C(N)=O.CS(=O)(=O)O (centres undefined) | 128 µg/mL | > 128 µg/mL | > 128 µg/mL | > 128 µg/mL |  |
| CC(C)(NCCc1ccc(OCc2cccc(F)c2)cc1)C(N)=O.CS(=O)(=O)O | 128 µg/mL | > 128 µg/mL | > 128 µg/mL | > 128 µg/mL |  |
| CC(NCCc1ccc(-c2cccc(OC(F)(F)F)c2)cc1)C(N)=O.CS(=O)(=O)O (racemic) | 32 µg/mL | 64 µg/mL | > 128 µg/mL | 16 µg/mL |  |
| Nc1ncccc1C(=O)NCCc1ccc(-c2ccc(Cl)c(Cl)c2)cc1 | 128 µg/mL (≈ 331 µM) | 128 µg/mL (≈ 331 µM) | 128 µg/mL (≈ 331 µM) | 128 µg/mL (≈ 331 µM) |  |
| CCCC(N)C(=O)NCCc1ccc(-c2ccc(F)c(F)c2)cc1.Cl (racemic) | 32 µg/mL | 64 µg/mL | 16 µg/mL | 64 µg/mL | > 85% |
| CC(NCCc1ccc(OCc2ccc(C(F)(F)F)cc2)cc1)C(N)=O.CS(=O)(=O)O (racemic) | 32 µg/mL | 128 µg/mL | 128 µg/mL | 64 µg/mL |  |
| CC(NCCc1ccc(OCc2cccc(C(F)(F)F)c2)cc1)C(N)=O.CS(=O)(=O)O (racemic) | 32 µg/mL | 128 µg/mL | 128 µg/mL | 64 µg/mL |  |
| CC(NCCc1ccc(-c2ccc(C(F)(F)F)cc2)cc1)C(N)=O.CS(=O)(=O)O (racemic) | 32 µg/mL | 64 µg/mL | 128 µg/mL | 32 µg/mL |  |
| CC(C)(NCCc1ccc(OCc2cccc(C(F)(F)F)c2)cc1)C(N)=O.CS(=O)(=O)O | 64 µg/mL | 128 µg/mL | 128 µg/mL | 128 µg/mL |  |
| Cl.O=C(NCCc1ccc(-c2ccc(C(F)(F)F)cc2)cc1)C1CCNC1 (racemic) | 64 µg/mL | 64 µg/mL | 32 µg/mL | 64 µg/mL |  |
| CC(=O)N1CCCC1C(=O)NCCc1ccc(-c2ccc(C(F)(F)F)cc2)cc1 (racemic) | > 128 µg/mL | > 128 µg/mL | > 128 µg/mL | > 128 µg/mL |  |
| CC(NCCc1ccc(OCc2ccc(Cl)cc2)cc1)C(N)=O.CS(=O)(=O)O (racemic) | 64 µg/mL | > 128 µg/mL | > 128 µg/mL | > 128 µg/mL |  |
| CC(NCCc1ccc(OCc2ccccc2C(F)(F)F)cc1)C(N)=O.CS(=O)(=O)O (racemic) | 64 µg/mL | > 128 µg/mL | > 128 µg/mL | 64 µg/mL |  |
| CC(NCCc1ccc(OCc2cccc(F)c2)cc1)C(N)=O.CS(=O)(=O)O (racemic) | 64 µg/mL | > 128 µg/mL | > 128 µg/mL | > 128 µg/mL |  |
| COc1cccc(COc2ccc(CCNC(C)C(N)=O)cc2)c1.CS(=O)(=O)O (racemic) | 128 µg/mL | > 128 µg/mL | 128 µg/mL | > 128 µg/mL |  |
| CC(NCCc1ccc(-c2ccc(OC(F)(F)F)cc2)cc1)C(N)=O.CS(=O)(=O)O (racemic) | 16 µg/mL | > 128 µg/mL | 36 µg/mL | > 128 µg/mL |  |
| CCCC(NC)C(=O)NCCc1ccc(OCc2ccc(C(F)(F)F)cc2)cc1.Cl (racemic) | 16 µg/mL | 64 µg/mL | 64 µg/mL | 64 µg/mL |  |
| O=C(NCCc1ccc(-c2ccc(Cl)c(Cl)c2)cc1)c1cccnc1 | 128 µg/mL (≈ 345 µM) | 128 µg/mL (≈ 345 µM) | 128 µg/mL (≈ 345 µM) | 128 µg/mL (≈ 345 µM) |  |
| CC(NCCc1ccc(Oc2ccc(C(F)(F)F)cc2)cc1)C(N)=O.CS(=O)(=O)O (racemic) | 32 µg/mL | 128 µg/mL | 128 µg/mL | 64 µg/mL |  |
| CCC(NC)C(=O)NCCc1ccc(-c2ccc(C(F)(F)F)cc2)cc1.Cl (racemic) | 16 µg/mL | 64 µg/mL | 32 µg/mL | 64 µg/mL |  |
| CCC(N)C(=O)NCCc1ccc(-c2ccc(F)c(F)c2)cc1.Cl (racemic) | 64 µg/mL | 64 µg/mL | 32 µg/mL | 64 µg/mL |  |
| CC(NCCc1ccc(OCc2ccc(F)cc2)cc1)C(N)=O.CS(=O)(=O)O (racemic) | 128 µg/mL | > 128 µg/mL | > 128 µg/mL | > 128 µg/mL |  |
| CC(NCCc1ccc(OCc2cccc(Cl)c2)cc1)C(N)=O.CS(=O)(=O)O (racemic) | 32 µg/mL | > 128 µg/mL | 128 µg/mL | 128 µg/mL |  |
| CCCCC(N)C(=O)NCCc1ccc(-c2ccc(F)c(F)c2)cc1.Cl (racemic) | 16 µg/mL | 32 µg/mL | 16 µg/mL | 32 µg/mL |  |
| Cl.O=C(NCCc1ccc(-c2ccc(C(F)(F)F)cc2)cc1)C1CCCN1 (racemic) | 16 µg/mL | 32 µg/mL | 32 µg/mL | 32 µg/mL |  |
| CC(C)(NCCc1ccc(OCc2ccc(C(F)(F)F)cc2)cc1)C(N)=O.CS(=O)(=O)O | 64 µg/mL | 128 µg/mL | 128 µg/mL | 128 µg/mL |  |

Second part, the compound after the results:

| MIC [1] | MIC [2] | MIC [3] | MIC [4] | remaining at 0.5 h [5] | Structure (SMILES) |
| --- | --- | --- | --- | --- | --- |
| 8 µg/mL | 32 µg/mL | 32 µg/mL | 32 µg/mL |  | CC(NCCc1ccc(Oc2ccc(Cl)c(Cl)c2)cc1)C(N)=O.CS(=O)(=O)O (racemic) |
| 8 µg/mL | 16 µg/mL | 16 µg/mL | 16 µg/mL |  | Cl.O=C(NCCc1ccc(-c2ccc(Cl)c(Cl)c2)cc1)C1CCCCN1 (racemic) |
| 8 µg/mL | 16 µg/mL | 16 µg/mL | 16 µg/mL |  | CCC(NC)C(=O)NCCc1ccc(-c2ccc(Cl)c(Cl)c2)cc1.Cl (racemic) |
| 16 µg/mL | 16 µg/mL | 16 µg/mL | 32 µg/mL |  | CCC(N)C(=O)NCCc1ccc(-c2ccc(OC(F)(F)F)cc2)cc1.Cl (racemic) |
| 16 µg/mL | 16 µg/mL | 16 µg/mL | 32 µg/mL |  | CCC(N)C(=O)NCCc1ccc(-c2ccc(C(F)(F)F)cc2)cc1.Cl (racemic) |
| 8 µg/mL (≈ 20.4 µM) | 16 µg/mL (≈ 40.9 µM) | 128 µg/mL (≈ 327 µM) | 16 µg/mL (≈ 40.9 µM) |  | CN1CCCCC1C(=O)NCCc1ccc(-c2ccc(Cl)c(Cl)c2)cc1 (racemic) |
| 16 µg/mL | 32 µg/mL | 32 µg/mL | 32 µg/mL |  | CCCC(N)C(=O)NCCc1ccc(Oc2ccc(C(F)(F)F)cc2)cc1.Cl (racemic) |
| 16 µg/mL | 32 µg/mL | 32 µg/mL | 32 µg/mL |  | CCC(NC)C(=O)NCCc1ccc(-c2ccc(OC(F)(F)F)cc2)cc1.Cl (racemic) |
| 4 µg/mL | 8 µg/mL | 8 µg/mL | 8 µg/mL |  | CCCCC(N)C(=O)NCCc1ccc(-c2ccc(OC(F)(F)F)cc2)cc1.Cl (racemic) |
| 8 µg/mL | 16 µg/mL | 8 µg/mL | 16 µg/mL |  | CCCC(N)C(=O)NCCc1ccc(-c2ccc(C(F)(F)F)cc2)cc1.Cl (racemic) |
| 4 µg/mL | 16 µg/mL | 8 µg/mL | 16 µg/mL |  | CCCC(N)C(=O)NCCc1ccc(-c2ccc(OC(F)(F)F)cc2)cc1.Cl (racemic) |
| 4 µg/mL | 16 µg/mL | 16 µg/mL | 16 µg/mL |  | CCCCC(NC)C(=O)NCCc1ccc(-c2ccc(C(F)(F)F)cc2)cc1.Cl (racemic) |
| 8 µg/mL | 32 µg/mL | 32 µg/mL | 32 µg/mL |  | CC(NCCc1ccc(OCc2ccc(Cl)cc2Cl)cc1)C(N)=O.CS(=O)(=O)O (racemic) |
| 8 µg/mL | 16 µg/mL | 8 µg/mL | 16 µg/mL |  | CCCC(N)C(=O)NCCc1ccc(OCc2ccc(Cl)c(Cl)c2)cc1.Cl (racemic) |
| 8 µg/mL | 16 µg/mL | 16 µg/mL | 8 µg/mL |  | CC(NCCc1ccc(-c2ccc(Cl)c(Cl)c2)cc1)C(N)=O.CS(=O)(=O)O (racemic) |
| 4 µg/mL | 16 µg/mL | 16 µg/mL | 8 µg/mL |  | CCCCC(NC)C(=O)NCCc1ccc(-c2ccc(OC(F)(F)F)cc2)cc1.Cl (racemic) |
| 4 µg/mL | 8 µg/mL | 8 µg/mL | 8 µg/mL |  | CCCCC(N)C(=O)NCCc1ccc(-c2ccc(C(F)(F)F)cc2)cc1.Cl (racemic) |
| 8 µg/mL | 16 µg/mL | 8 µg/mL | 16 µg/mL |  | CCC(N)C(=O)NCCc1ccc(-c2ccc(Cl)c(Cl)c2)cc1.Cl (racemic) |
| 8 µg/mL | 16 µg/mL | 16 µg/mL | 16 µg/mL |  | Cl.O=C(NCCc1ccc(-c2ccc(Cl)c(Cl)c2)cc1)C1CCCN1 (centres undefined) |
| 8 µg/mL | 16 µg/mL | 16 µg/mL | 16 µg/mL |  | CCCC(N)C(=O)NCCc1ccc(Oc2ccc(Cl)c(Cl)c2)cc1.Cl (racemic) |
| 8 µg/mL (≈ 21.2 µM) | 16 µg/mL (≈ 42.4 µM) | 128 µg/mL (≈ 339 µM) | 16 µg/mL (≈ 42.4 µM) |  | CN1CCCC1C(=O)NCCc1ccc(-c2ccc(Cl)c(Cl)c2)cc1 (racemic) |
| 8 µg/mL | 128 µg/mL | 32 µg/mL | 16 µg/mL |  | CCCC(NC)C(=O)NCCc1ccc(-c2ccc(OC(F)(F)F)cc2)cc1.Cl (racemic) |
| 8 µg/mL | 32 µg/mL | 32 µg/mL | 32 µg/mL |  | CCCC(NC)C(=O)NCCc1ccc(OCc2ccc(Cl)c(Cl)c2)cc1.Cl (racemic) |
| 8 µg/mL | 32 µg/mL | 32 µg/mL | 32 µg/mL |  | CC(NCCc1ccc(OCc2ccc(Cl)c(Cl)c2)cc1)C(N)=O.CS(=O)(=O)O (racemic) |
